# Measurements taken from PubChem BioAssay (NCI).
#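 Five compound concentrations were applied to cells in 96-well plates for 48 hours; endpoints were derived by simple linear interpolation of the resulting dose-response curve. At the TGI there is no net growth.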
# Legend:
# Assay in all cases: inhibition of tumour cell growth, NCI panel, 48 h
# ACHN renal = system: ACHN renal
# COLO 205 colon = system: COLO 205 colon
# HOP-62 NSCLC = system: HOP-62 NSCLC
# LOX IMVI melanoma = system: LOX IMVI melanoma
# M14 melanoma = system: M14 melanoma
# MALME-3M melanoma = system: MALME-3M melanoma
# MCF7 breast = system: MCF7 breast
# MDA-N = system: MDA-N
# NCI-H226 lung = system: NCI-H226 lung
# NCI-H460 lung = system: NCI-H460 lung
# OVCAR-5 ovarian = system: OVCAR-5 ovarian
# PC-3 prostate = system: PC-3 prostate
# SK-MEL-28 melanoma = system: SK-MEL-28 melanoma
# SK-OV-3 ovarian = system: SK-OV-3 ovarian
# SN12C renal = system: SN12C renal
# SW-620 colon = system: SW-620 colon
# TK-10 renal = system: TK-10 renal
# U251 CNS = system: U251 CNS
# UACC-257 melanoma = system: UACC-257 melanoma
# A498 renal = system: A498 renal
Compound,TGI (ACHN renal),TGI (COLO 205 colon),TGI (HOP-62 NSCLC),TGI (LOX IMVI melanoma),TGI (M14 melanoma),TGI (MALME-3M melanoma),TGI (MCF7 breast),TGI (MDA-N),TGI (NCI-H226 lung),TGI (NCI-H460 lung),TGI (OVCAR-5 ovarian),TGI (PC-3 prostate),TGI (SK-MEL-28 melanoma),TGI (SK-OV-3 ovarian),TGI (SN12C renal),TGI (SW-620 colon),TGI (TK-10 renal),TGI (U251 CNS),TGI (UACC-257 melanoma),TGI (A498 renal)
O=c1oc2ccc([N+](=O)[O-])cc2c(Nc2ccc3c(c2)S(=O)(=O)c2ccccc2O3)c1[N+](=O)[O-],> 100 µM,> 100 µM,> 100 µM,> 100 µM,> 100 µM,> 100 µM,> 100 µM,> 100 µM,96.8 µM,> 100 µM,> 100 µM,> 100 µM,> 100 µM,> 100 µM,> 100 µM,> 100 µM,> 100 µM,> 100 µM,> 100 µM,–
CC(=O)c1sc(=N)n(-c2c(C)cccc2C)c1C,> 100 µM,> 100 µM,> 100 µM,> 100 µM,> 100 µM,> 100 µM,> 100 µM,> 100 µM,> 100 µM,> 100 µM,> 100 µM,> 100 µM,> 100 µM,> 100 µM,> 100 µM,> 100 µM,> 100 µM,> 100 µM,–,> 100 µM
Cc1c(C)c(S(=O)(=O)N(CCCCCON)OCCCN)c(C)c2c1OC(C)(C)CC2,30 µM,10.3 µM,31.8 µM,22.5 µM,18.8 µM,27.4 µM,21.8 µM,27.3 µM,36.7 µM,22.4 µM,28.2 µM,26.4 µM,32.2 µM,28.1 µM,32.4 µM,33.2 µM,27.5 µM,25.7 µM,29.5 µM,28.3 µM
COc1cc(C(=O)Oc2c(C#N)sc3c2c(=O)n(-c2ccccc2)c(=S)n3-c2ccccc2)cc(OC)c1OC,> 100 µM,30.7 µM,48.3 µM,51.6 µM,25.6 µM,28 µM,57.1 µM,> 100 µM,32.7 µM,68.1 µM,46.7 µM,> 100 µM,46.3 µM,> 100 µM,32.3 µM,68 µM,95.9 µM,45.9 µM,> 100 µM,19.6 µM
CC1=NN=C(N)NC1=CC(Sc1ccc(Cl)cc1)c1c(O)ccc2ccccc12 (stereo unspecified),28.1 µM,36.8 µM,57.7 µM,> 65.2 µM,36.2 µM,20.4 µM,73.9 µM,> 100 µM,14 µM,45.1 µM,> 61.9 µM,53.4 µM,> 62.6 µM,67.4 µM,97.3 µM,> 100 µM,> 100 µM,76.8 µM,> 87.1 µM,37.5 µM
COc1ccc(CCc2nccn2C)cc1OC,> 100 µM,> 100 µM,> 100 µM,> 100 µM,> 100 µM,> 100 µM,> 100 µM,> 100 µM,–,> 100 µM,> 100 µM,> 100 µM,> 100 µM,> 100 µM,> 100 µM,> 100 µM,> 100 µM,–,> 100 µM,> 100 µM
